Reference: BigSolDB 2.1

COc1cc(/C=C/C(=O)CC(=O)/C=C/c2ccc(O)c(OC)c2)ccc1O
solubility (mole fraction)
Conditions | 278.15 K | 283.15 K | 288.15 K | 293.15 K | 298.15 K | 303.15 K | 308.15 K | 313.15 K | 318.15 K | 323.15 K
in DMSO | 0.137 | 0.16 | 0.184 | 0.211 | 0.24 | 0.271 | 0.303 | 0.338 | 0.375 | 0.413
in THF | 0.113 | 0.134 | 0.157 | 0.183 | 0.211 | 0.239 | 0.27 | 0.302 | 0.336 | 0.371
in acetone | 0.00834 | 0.00986 | 0.0118 | 0.0138 | 0.0162 | 0.0189 | 0.022 | 0.0257 | 0.0298 | 0.0345
in acetonitrile | 0.00071 | 0.00083 | 0.00097 | 0.00113 | 0.00129 | 0.00149 | 0.00169 | 0.00194 | 0.00221 | 0.00253
in ethanol | 0.00041 | 0.00048 | 0.00056 | 0.00065 | 0.00075 | 0.00086 | 0.00098 | 0.00111 | 0.00127 | 0.00145
in ethyl acetate | 0.00176 | 0.00199 | 0.00227 | 0.00253 | 0.00285 | 0.00319 | 0.00357 | 0.00399 | 0.00447 | 0.00501
in isopropanol | 0.00156 | 0.00177 | 0.002 | 0.00226 | 0.00254 | 0.00285 | 0.00319 | 0.00356 | 0.00398 | 0.00444
in m-xylene | 0.00015 | 0.00018 | 0.00022 | 0.00026 | 0.00031 | 0.00036 | 0.00042 | 0.00049 | 0.00057 | 0.00066
in methanol | 0.00029 | 0.00033 | 0.00038 | 0.00044 | 0.0005 | 0.00057 | 0.00066 | 0.00075 | 0.00087 | 0.001
in n-butanol | 0.00049 | 0.00057 | 0.00066 | 0.00075 | 0.00086 | 0.00099 | 0.00114 | 0.00131 | 0.00151 | 0.00175
in n-heptane | 5e-05 | 9e-05 | 0.00013 | 0.00017 | 0.00022 | 0.00027 | 0.00032 | 0.00038 | 0.00044 | 0.00052
in n-hexane | 7e-05 | 0.00011 | 0.00015 | 0.00019 | 0.00024 | 0.00029 | 0.00035 | 0.00041 | 0.00048 | 0.00057
